Reference: PMC12431657, “Discovery and mechanistic insights of dibenzoylmethane as a broad spectrum inhibitor of coronavirus” (PLOS Pathogens, 2025)
Where a name gives a salt, the structure may show the parent alone.

Tests used:
[1] = system: HCoV-229E; design: species or system Huh-7; HTS, protection from HCoV-229E induced cell death, luminescent cell viability (CellCounting-Lite 2.0), inhibition rate; conditions: 24 h, 10 µM; inhibitor
[2] = system: HCoV-OC43; design: species or system RD; HTS, protection from HCoV-OC43 induced cell death, luminescent cell viability (CellCounting-Lite 2.0), inhibition rate; conditions: 24 h, 10 µM; inhibitor

| Compound | 229E Inhibition rate [1] | OC43 Inhibition rate [2] |
| --- | --- | --- |
| O=C1C=C2C=C[C@@H]3C[C@@]2(O1)[C@H]1CCCCN31 [(-)-Securinine] | 43% | 38.4% |
| CC[C@@]1(O)C(=O)OCc2c1cc1n(c2=O)Cc2cc3cc(O)ccc3nc2-1 [(S)-10-Hydroxycamptothecin] | 18.7 | -0.8 |
| O=C1C=C2C=C[C@@H]3C[C@@]2(O1)[C@@H]1CCCCN31 [Allosecurinine] | 21.3% | 19.8% |
| N#C[C@H](O[C@@H]1O[C@H](CO[C@@H]2O[C@H](CO)[C@@H](O)[C@H](O)[C@H]2O)[C@@H](O)[C@H](O)[C@H]1O)c1ccccc1 [Amygdalin] | 20.7% | 0.1% |
| CC[C@@H]1/C=C(\C)C[C@H](C)C[C@H](OC)[C@H]2O[C@@](O)(C(=O)C(=O)N3CCCC[C@H]3C(=O)O[C@H](/C(C)=C/[C@@H]3CC[C@@H](O)[C@H](OC)C3)[C@H](C)[C@@H](O)CC1=O)[C@H](C)C[C@@H]2OC [Ascomycin] | 17.9 | 12.5 |
| CC(C)[C@H]1OC(=O)[C@H](Cc2ccccc2)N(C)C(=O)[C@@H](C(C)C)OC(=O)[C@H](Cc2ccccc2)N(C)C(=O)[C@@H](C(C)C)OC(=O)[C@H](Cc2ccccc2)N(C)C1=O [Beauvericin] | 24.3 | -1.9 |
| C/C=C\c1cc(OC)c(OC)cc1OC [Beta-asarone] | 28.9% | 0.1% |
| CN1CCc2cc3c(cc2[C@H]1[C@@H]1OC(=O)c2c1ccc1c2OCO1)OCO3 [Bicuculline] | 0% | -0.3% |
| C[C@]12CC[C@H](O)C[C@H]1CC[C@@H]1[C@@H]2CC[C@]2(C)[C@@H](c3ccc(=O)oc3)CC[C@]12O [Bufalin] | 19.3% | -7.6% |
| CC[C@H]1CN2CCc3cc(OC)c(OC)cc3[C@@H]2C[C@@H]1C[C@H]1NCCc2cc(O)c(OC)cc21 [Cephaeline (dihydrochloride)] | 17.7% | 7.6% |
| CC(=O)O[C@H]1[C@H]2O[C@]23[C@@H]2CC[C@]4(O)C[C@@H](O)CC[C@]4(C)[C@H]2CC[C@]3(C)[C@H]1c1ccc(=O)oc1 [Cinobufotalin] | 9.3% | 11.4% |
| CC1=C2C(=CO[C@H](C)[C@H]2C)C(O)=C(C(=O)O)C1=O [Citrinin] | 12% | -8.1% |
| COc1cc2c(c(OC)c1OC)-c1ccc(OC)c(=O)cc1[C@@H](NC(C)=O)CC2 [Colchicine] | 13.9 | -3.5 |
| CC(=O)C1=C(O)[C@@H]2[C@H]3c4c[nH]c5cccc(c45)C[C@H]3C(C)(C)N2C1=O [Cyclopiazonic acid] | 0% | 0% |
| CO[C@H]1CC=C2CCN3CCC4=C(CC(=O)OC4)[C@]23C1 [Dihydro-β-erythroidine (hydrobromide)] | 0% | -0.7% |
| COc1cc(CNC(=O)CCCCCCC(C)C)ccc1O [Dihydrocapsaicin] | 7.8 | 7.9 |
| C=C(C)c1cc2cc(C(C)=O)c(O)cc2o1 [Euparin] | 14.2% | 4.4% |
| C=C[C@@H](O)C#CC#C[C@@H](O)/C=C\CCCCCCC [Falcarindiol] | 34% | -0.3% |
| CCc1c(Cl)c(O)c(Cl)c(O)c1C(=O)O[C@H]1[C@H](O)[C@H](OC)[C@H](OC/C2=C\C=C\C[C@H](O)/C(C)=C/[C@H](CC)[C@@H](O[C@@H]3OC(C)(C)[C@@H](OC(=O)C(C)C)[C@H](O)[C@@H]3O)/C(C)=C/C(C)=C/C[C@@H]([C@@H](C)O)OC2=O)O[C@@H]1C [Fidaxomicin] | 27.3 | 15 |
| CCCCc1ccc(C(=O)O)nc1 [Fusaric acid] | 12.7% | 0.1% |
| CN[C@H]1[C@H](O)[C@H](O[C@@H]2[C@@H](O)[C@H](O[C@H]3O[C@H](C(C)O)[C@@H](O)[C@H](O)[C@H]3N)[C@@H](N)C[C@H]2N)OC[C@@]1(C)O (stereo partly drawn) [G-418 (disulfate)] | 29.4% | 4.1% |

| Compound | 229E Inhibition rate [1] | OC43 Inhibition rate [2] |
| --- | --- | --- |
| C=C[C@]12CN(C)[C@@H]3[C@H]4CO[C@H](C[C@H]41)[C@]1(C(=O)Nc4ccccc41)[C@@H]32 [Gelsemine] | 21.7% | -0.3% |
| CN1C(=O)[C@]23CC4=CC=C[C@H](O)[C@H]4N2C(=O)[C@@]1(CO)SS3 [Gliotoxin] | 0.7% | -0.7% |
| Cc1nccc2c1[nH]c1ccccc12 [Harmane] | 0% | 0.2% |
| COc1ccc2c(c1OC)C(=O)O[C@@H]2[C@H]1c2cc3c(cc2CCN1C)OCO3 [Hydrastine] | 28.1% | -0.2% |
| COc1c2c3c4c(c(OC)c(=O)c5c(O)cc(OC)c(c6c(OC)cc(O)c(c1=O)c63)c54)[C@@H](C(C)=O)[C@@](C)(O)C2 [Hypocrellin A] | 4.6% | -1.7% |
| N[C@H](C(=O)O)c1cc(O)no1 [Ibotenic acid] | 11.4% | 3.8% |
| CC1=C2C(=O)[C@H]3[C@@H](CC=C4C[C@@H](O)CC[C@@]43C)[C@@H]2CC[C@]12O[C@@H]1C[C@H](C)CN[C@H]1[C@H]2C [Jervine] | 3.8% | -0.3% |
| C=C(C)[C@H]1CN[C@H](C(=O)O)[C@H]1CC(=O)O [Kainic acid] | 14.3% | 2.1% |
| CCC(=O)O[C@@H]1CC(=O)O[C@H](C)C/C=C/C=C/[C@H](O)[C@H](C)C[C@H](CC=O)[C@H](O[C@@H]2O[C@H](C)[C@@H](O[C@H]3C[C@@](C)(O)[C@@H](OC(=O)CC)[C@H](C)O3)[C@H](N(C)C)[C@H]2O)[C@H]1OC [Midecamycin] | 12.9 | -1.1 |
| N#C[C@@H](O[C@@H]1O[C@H](CO[C@@H]2O[C@H](CO)[C@@H](O)[C@H](O)[C@H]2O)[C@@H](O)[C@H](O)[C@H]1O)c1ccccc1 [Neoamygdalin] | 63.2% | -0.4% |
| O=C1C=C2C(=CCOC2O)O1 (stereo not drawn) [Patulin] | 3.7% | -3.1% |
| C[C@H]1CCC2N(C1)C[C@H]1C3CC4[C@@H](CC(=O)C5C[C@@H](O)CC[C@@]54C)C3CCC1[C@]2(C)O (stereo partly drawn) [Peiminine] | 21.8% | 1% |
| CC(C)CCC(=O)c1ccoc1 [Perilla ketone] | 9.1% | 2.5% |
| CC(C)C1=CC(=O)[C@@](C)([C@H]2[C@H](O)C[C@@]3(C)[C@@H]4CC=C5[C@@H](CC[C@@H](O[C@@H]6OC[C@@H](O)[C@H](O)[C@H]6O[C@@H]6O[C@@H](C)[C@H](O)[C@@H](O)[C@H]6O)C5(C)C)[C@]4(C)C(=O)C[C@]23C)O1 [Picfeltarraenin IA] | 0% | -0.3% |
| C[C@@H]1O[C@@H](O[C@@H]2C=C3CC[C@@H]4[C@H](CC[C@]5(C)[C@@H](c6ccc(=O)oc6)CC[C@]45O)[C@@]3(C)CC2)[C@H](O)[C@H](O)[C@H]1O [Proscillaridin A] | 21.1% | -0.6% |
| CC1=C2[C@H]3OC(=O)[C@@H](C)[C@@H]3CC[C@@]2(C)C=CC1=O [Santonin] | 22.7% | -0.5% |
| C[C@H]1CC[C@@H]2N(C1)C[C@H]1[C@@H]3C[C@H]4[C@@H](CC(=O)[C@H]5C[C@@H](O)CC[C@@]54C)[C@@H]3CC[C@H]1[C@]2(C)O [Sipeimine] | 43.3% | -1% |
| O=c1cc(-c2ccc(O)cc2)oc2c([C@@H]3O[C@H](CO)[C@@H](O)[C@H](O)[C@H]3O)c(O)cc(O)c12 [Vitexin] | 10.4% | 0% |
| C[C@H]1CC[C@@H]2N(C1)C[C@H]1[C@@H]3C[C@H]4[C@@H](CC(=O)[C@H]5C[C@H](O)CC[C@@]54C)[C@@H]3CC[C@H]1[C@]2(C)O [Yubeinine] | 8.8% | 0% |
| C/C=C/c1cc(OC)c(OC)cc1OC [alpha-Asarone] | 14.4% | 1.2% |
| C[C@H]1CC[C@@H]2[C@@H](C)[C@H]3[C@H](C[C@H]4[C@@H]5CC=C6C[C@@H](O[C@@H]7O[C@H](CO)[C@H](O)[C@H](O[C@@H]8O[C@H](CO)[C@@H](O)[C@H](O)[C@H]8O)[C@H]7O[C@@H]7O[C@@H](C)[C@H](O)[C@@H](O)[C@H]7O)CC[C@]6(C)[C@H]5CC[C@]34C)N2C1 [α-Solanine] | 9.3% | 23.1% |
